# Source: US8030300B2, “Ligands for nicotinic acetylcholine receptors, and methods of making and using them” (priority 2003, dated 2011)
# Where two headings read alike, the source gives them in different places.
# Assays:
# Type in all cases: binding
# [1] = target: T1, α4β2 nAChR subtype (Rattus norvegicus, UniProt P09483+P12390); test: biochemical
# T1 construct: expressed in transfected cells
# Text: (§1) In order to assess the steric and hydropathic effects of the C-5 substituents of the pyridine on the binding affinity and subtype-selectivity at neuronal nicotinic acetylcholine receptors. […] The binding affinity ratios for a ligand, calculated from its affinities at an α subunit paired with either the β2 osubunit or the β4 subunit, represents a measure of the selectivity of that ligand with regard to the β subunits.
# [2] = tested on: receptors in rat forebrain (mainly α4β2); test: biochemical; details: Table 3; ratio of the corresponding Ki values
# Text: as §1
# (§2) In Vitro Inhibition of ^3H-Epibatidin Binding
# (§3) The high affinity binding site for ^3H-epibatidin is most certainly binding to the α4β2 subtype of nicotinic receptors. The identity of the low affinity site is still believed to be unknown.
# (§4) Tissue preparation: Preparations may be performed at 0-4° C. unless otherwise indicated. […] The tissue suspension may then be centrifuged at 27,000×g for 10 min. The supernatant is then discarded and the pellet may then be washed three times by centrifugation at 27,000×g for 10 min in 20 mL fresh buffer, and the final pellet may be resuspended in fresh buffer (400 mL per g of original tissue) and used for binding assays.
# (§5) Assay: Aliquots of 2.0 mL homogenate may be added to 0.100 mL of test solution and 0.100 mL of ^3H-epibatidin (0.3 nM, final concentration), mixed and incubated for 60 min at room temperature. […] The amount of radioactivity on the filters may be determined by conventional liquid scintillation counting. Specific binding is total binding minus non-specific binding.
# [3] = target: T2, α2β2 nAChR subtype (Rattus norvegicus, UniProt P12389+P12390); test: biochemical
# T2 construct: expressed in transfected cells
# T2 sequence (P12390 25-500): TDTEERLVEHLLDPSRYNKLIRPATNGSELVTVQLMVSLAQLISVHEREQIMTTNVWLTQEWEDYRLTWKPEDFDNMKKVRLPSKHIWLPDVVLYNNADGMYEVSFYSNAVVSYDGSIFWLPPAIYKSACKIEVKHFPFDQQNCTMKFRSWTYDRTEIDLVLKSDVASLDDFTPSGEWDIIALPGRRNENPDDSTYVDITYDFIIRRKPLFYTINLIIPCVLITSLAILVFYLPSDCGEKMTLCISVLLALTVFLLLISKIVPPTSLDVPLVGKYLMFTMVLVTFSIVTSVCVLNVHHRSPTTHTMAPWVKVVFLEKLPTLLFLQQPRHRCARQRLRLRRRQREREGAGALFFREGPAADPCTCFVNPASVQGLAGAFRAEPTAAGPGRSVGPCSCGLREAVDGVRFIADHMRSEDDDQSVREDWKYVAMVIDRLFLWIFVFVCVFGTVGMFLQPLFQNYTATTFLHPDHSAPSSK
# T2 sequence (P12389 28-511): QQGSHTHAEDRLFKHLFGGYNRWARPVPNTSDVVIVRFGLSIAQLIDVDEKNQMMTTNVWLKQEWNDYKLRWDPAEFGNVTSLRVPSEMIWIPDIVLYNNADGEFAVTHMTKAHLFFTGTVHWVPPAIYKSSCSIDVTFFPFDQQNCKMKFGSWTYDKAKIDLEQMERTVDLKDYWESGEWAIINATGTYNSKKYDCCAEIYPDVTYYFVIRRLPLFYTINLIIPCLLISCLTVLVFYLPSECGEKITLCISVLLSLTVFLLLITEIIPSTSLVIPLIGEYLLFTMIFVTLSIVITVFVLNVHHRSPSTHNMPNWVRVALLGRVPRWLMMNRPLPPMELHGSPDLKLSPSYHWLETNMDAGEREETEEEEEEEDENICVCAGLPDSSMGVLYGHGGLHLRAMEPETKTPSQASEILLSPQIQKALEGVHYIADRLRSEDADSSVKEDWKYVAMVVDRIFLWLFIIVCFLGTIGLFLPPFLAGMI
# Text: as §1
# [4] = target: T3, α2β4 nAChR subtype (Rattus norvegicus, UniProt P12389+P12392); test: biochemical
# T3 construct: expressed in transfected cells
# T3 sequence (P12389 28-511): as above
# T3 sequence (P12392 21-495): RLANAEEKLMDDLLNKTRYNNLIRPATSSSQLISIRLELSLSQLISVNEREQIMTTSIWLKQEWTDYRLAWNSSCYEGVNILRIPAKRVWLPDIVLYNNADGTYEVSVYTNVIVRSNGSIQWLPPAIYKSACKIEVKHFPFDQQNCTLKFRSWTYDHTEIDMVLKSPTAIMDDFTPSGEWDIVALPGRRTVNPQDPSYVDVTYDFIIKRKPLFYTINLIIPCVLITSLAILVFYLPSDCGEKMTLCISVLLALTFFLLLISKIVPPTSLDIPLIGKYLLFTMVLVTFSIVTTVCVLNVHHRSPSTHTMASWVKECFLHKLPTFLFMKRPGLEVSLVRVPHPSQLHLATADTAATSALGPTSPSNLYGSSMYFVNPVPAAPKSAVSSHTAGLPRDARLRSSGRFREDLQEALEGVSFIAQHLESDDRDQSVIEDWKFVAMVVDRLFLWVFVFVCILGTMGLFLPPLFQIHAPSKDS
# Text: as §1
# [5] = target: T4, α3β2 nAChR subtype (Rattus norvegicus, UniProt P04757+P12390); test: biochemical
# T4 construct: expressed in transfected cells
# T4 sequence (P12390 25-500): as the sequence (P12390 25-500) above
# T4 sequence (P04757 26-499): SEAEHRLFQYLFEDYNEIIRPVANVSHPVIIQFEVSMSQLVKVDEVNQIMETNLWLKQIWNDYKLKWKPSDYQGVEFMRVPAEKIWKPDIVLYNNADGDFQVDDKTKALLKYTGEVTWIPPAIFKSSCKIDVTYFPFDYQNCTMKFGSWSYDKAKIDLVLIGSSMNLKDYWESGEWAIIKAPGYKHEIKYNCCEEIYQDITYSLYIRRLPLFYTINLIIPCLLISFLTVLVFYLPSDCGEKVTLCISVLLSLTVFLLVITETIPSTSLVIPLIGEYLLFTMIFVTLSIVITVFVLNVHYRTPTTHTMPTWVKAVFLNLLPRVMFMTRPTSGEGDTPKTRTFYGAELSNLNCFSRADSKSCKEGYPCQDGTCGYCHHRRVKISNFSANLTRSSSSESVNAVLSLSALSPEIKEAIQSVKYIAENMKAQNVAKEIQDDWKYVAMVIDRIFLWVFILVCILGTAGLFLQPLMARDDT
# Text: as §1
# [6] = target: T5, α3β4 nAChR subtype (Rattus norvegicus, UniProt P04757+P12392); test: biochemical
# T5 construct: expressed in transfected cells
# T5 sequence (P04757 26-499): as above
# T5 sequence (P12392 21-495): as the sequence (P12392 21-495) above
# Text: as §1
# [7] = target: T6, α4β4 nAChR subtype (Rattus norvegicus, UniProt P09483+P12392); test: biochemical
# T6 construct: expressed in transfected cells
# T6 sequence (P12392 21-495): as above
# T6 sequence (P09483 31-630): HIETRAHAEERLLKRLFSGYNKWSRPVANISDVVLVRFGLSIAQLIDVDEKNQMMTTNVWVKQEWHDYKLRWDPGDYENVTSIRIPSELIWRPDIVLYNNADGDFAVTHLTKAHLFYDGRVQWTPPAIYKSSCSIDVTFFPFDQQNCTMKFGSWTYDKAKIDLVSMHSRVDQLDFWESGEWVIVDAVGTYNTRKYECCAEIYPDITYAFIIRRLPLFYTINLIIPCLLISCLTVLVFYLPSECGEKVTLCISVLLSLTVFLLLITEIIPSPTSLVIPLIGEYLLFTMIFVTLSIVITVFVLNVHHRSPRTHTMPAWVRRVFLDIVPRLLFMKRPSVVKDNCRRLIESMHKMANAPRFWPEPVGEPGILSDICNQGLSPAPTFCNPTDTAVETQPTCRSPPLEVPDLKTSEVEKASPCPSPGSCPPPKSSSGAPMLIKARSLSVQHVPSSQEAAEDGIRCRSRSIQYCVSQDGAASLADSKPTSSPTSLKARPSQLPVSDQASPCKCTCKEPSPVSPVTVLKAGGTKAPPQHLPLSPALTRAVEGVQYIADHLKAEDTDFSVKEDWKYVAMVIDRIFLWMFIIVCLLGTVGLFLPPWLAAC
# Text: as §1
# [8] = target: T7, receptors in rat forebrain (mainly α4β2) (Rattus norvegicus, UniProt P09483+P12390); test: biochemical
# T7 construct: from tissue; host or cells: rat forebrain homogenate
# T7 sequence (P09483 31-630): as above
# T7 sequence (P12390 25-500): as the sequence (P12390 25-500) above
# Text: as §1, §2, §3, §4, §5
# [9] = target: T7, receptors in rat forebrain (mainly α4β2); details: Table 6, [3H]-EB 0.099 nM, 0.091 nM, n = 1
# [10] = Table 5, rat nAChR subtypes, read-out: Ki α2β2
# [11] = Table 6, [3H]-EB 0.099 nM, 0.091 nM, ligand 0.00197-100 μM, n = 1, read-out: Ki α2β2
# [12] = Table 5, rat nAChR subtypes, read-out: Ki α2β4
# [13] = Table 6, [3H]-EB 0.099 nM, 0.091 nM, ligand 0.00197-100 μM, n = 1, read-out: Ki α2β4
# [14] = Table 5, rat nAChR subtypes, read-out: Ki α3β2
# [15] = Table 6, [3H]-EB 0.099 nM, 0.091 nM, ligand 0.00197-100 μM, n = 1, read-out: Ki α3β2
# [16] = Table 5, rat nAChR subtypes, read-out: Ki α3β4
# [17] = Table 6, [3H]-EB 0.099 nM, 0.091 nM, ligand 0.00197-100 μM, n = 1, read-out: Ki α3β4
# [18] = Table 5, rat nAChR subtypes, read-out: Ki α4β2
# [19] = Table 6, [3H]-EB 0.099 nM, 0.091 nM, ligand 0.00197-100 μM, n = 1, read-out: Ki α4β2
# [20] = Table 5, rat nAChR subtypes, read-out: Ki α4β4
# [21] = Table 6, [3H]-EB 0.099 nM, 0.091 nM, ligand 0.00197-100 μM, n = 1, read-out: Ki α4β4
# [22] = Table 5, *Rat forebrain, mainly α4β2, read-out: Ki α4β2*
# [23] = Ki α2β2, Table 5, rat nAChR subtypes
# [24] = Ki α2β4, Table 5, rat nAChR subtypes
# [25] = Ki α2β4, Table 6, [3H]-EB 0.099 nM, 0.091 nM, ligand 0.00197-100 μM, n = 1
# [26] = Ki α3β2, Table 5, rat nAChR subtypes
# [27] = Ki α3β2, Table 6, [3H]-EB 0.099 nM, 0.091 nM, ligand 0.00197-100 μM, n = 1
# [28] = Ki α3β4, Table 5, rat nAChR subtypes
# [29] = Ki α3β4, Table 6, [3H]-EB 0.099 nM, 0.091 nM, ligand 0.00197-100 μM, n = 1
# [30] = Ki α4β2, Table 5, rat nAChR subtypes
# [31] = Ki α4β2, Table 6, [3H]-EB 0.099 nM, 0.091 nM, ligand 0.00197-100 μM, n = 1
# [32] = Ki α4β4, Table 5, rat nAChR subtypes
# [33] = Ki α4β4, Table 6, [3H]-EB 0.099 nM, 0.091 nM, ligand 0.00197-100 μM, n = 1
# [34] = Ki α4β2**, Table 6, **Forebrain mainly α4β2, [3H]-EB 0.099 nM, 0.091 nM, n = 1
# [35] = Ki α4β2*, Table 5, *Rat forebrain, mainly α4β2
# T1 sequence (P12390 25-500): as above
# T1 sequence (P09483 31-630): as the sequence (P09483 31-630) above
compound,measurement,setting,value
FCCCCC#Cc1cncc(OC[C@@H]2CCN2)c1 [Ligand 41],affinities for α4β2 nAChR subtype (in words),[1],subnanomolar
same,Affinity ratio (α3β4/Forbrain),[2],"15,166"
"CN1CCC[C@H]1COc1cncc(C#CC(C)(C)O)c1 [Ligand 15, 5-(3-Hydroxy-3-methyl-1-butynyl)-3-(1-methyl-2(S)pyrrolidinylmethoxy)pyridine]",Ki,[3]; [10],1.93 nM
same,Ki,[3]; [11],1.93 nM
same,Ki,[4]; [12],5890 nM
same,Ki,[4]; [13],5890 nM
same,Ki,[5]; [14],19.7 nM
same,Ki,[5]; [15],19.7 nM
same,Ki,[6]; [16],32600 nM
same,Ki,[6]; [17],32600 nM
same,Ki,[1]; [18],1.34 nM
same,Ki,[1]; [19],1.34 nM
same,Ki,[7]; [20],5060 nM
same,Ki,[7]; [21],5060 nM
same,Ki,[8]; [22],8.39 nM
same,Ki,[9],8.39 nM
"CN1CCC[C@H]1COc1cncc(C#CCCCCCCCCO)c1 [Ligand 17, 5-(10-Hydroxy-1-decynyl)-3-(1-methyl-2(S) -pyrrolidinylmethoxy)pyridine]",Ki,[3]; [10],26.8 nM
same,Ki,[3]; [11],26.8 nM
same,Ki,[4]; [12],7800 nM
same,Ki,[4]; [13],7800 nM
same,Ki,[5]; [14],52.1 nM
same,Ki,[5]; [15],52.1 nM
same,Ki,[6]; [16],62700 nM
same,Ki,[6]; [17],62700 nM
same,Ki,[1]; [18],6.5 nM
same,Ki,[1]; [19],6.5 nM
same,Ki,[7]; [20],3560 nM
same,Ki,[7]; [21],3560 nM
same,Ki,[8]; [22],21.7 nM
same,Ki,[9],21.7 nM
"CN1CCC[C@H]1COc1cccnc1 [Ligand 8, 3-(1-Methyl-2(S)-pyrrolidinylmethoxy)pyridine, reference compound]",Ki,[3]; [23],1.07 nM
same,Ki,"[3]; Ki α2β2, Table 6, [3H]-EB 0.099 nM, 0.091 nM, ligand 0.00197-100 μM, n = 1",1.07 nM
same,Ki,[4]; [24],209 nM
same,Ki,[4]; [25],209 nM
same,Ki,[5]; [26],9.04 nM
same,Ki,[5]; [27],9.04 nM
same,Ki,[6]; [28],835 nM
same,Ki,[6]; [29],835 nM
same,Ki,[1]; [30],1.4 nM
same,Ki,[1]; [31],1.4 nM
same,Ki,[7]; [32],205 nM
same,Ki,[7]; [33],205 nM
same,Ki,[8]; [34],5.15 nM
same,Ki,[8]; [35],5.15 nM
"c1cncc(OC[C@@H]2CCN2)c1 [Ligand A-85380, reference compound]",Ki,[3]; [23],0.073 nM
same,Ki,[4]; [24],18.4 nM
same,Ki,[4]; [25],18.4 nM
same,Ki,[5]; [26],0.208 nM
same,Ki,[5]; [27],0.208 nM
same,Ki,[6]; [28],77.7 nM
same,Ki,[6]; [29],77.7 nM
same,Ki,[1]; [30],0.142 nM
same,Ki,[1]; [31],0.142 nM
same,Ki,[7]; [32],8.04 nM
same,Ki,[7]; [33],8.04 nM
same,Ki,[8]; [34],0.248 nM
same,Ki,[8]; [35],0.248 nM
OCCCCC#Cc1cncc(OC[C@@H]2CCN2)c1 [Ligand 26],selectivity at α4β2 vs ganglionic α3β4 receptors,[1]; text b206,"54,000 fold"
same,"more selective for α4β2 over α3β4 than the corresponding parent compounds 7, 8, and 2",[1]; text b210,2 orders of magnitude
same,Affinity ratio (α3β4/Forbrain),[2],"53,778"
Clc1ccc(C2CC3CC4(OCCO4)C2N3)cn1 (centres unmarked) [ZW-82],Ki,[3]; [23],30 nM
same,Ki,[4]; [24],93.8 nM
same,Ki,[5]; [26],147 nM
same,Ki,[6]; [28],173 nM
same,Ki,[1]; [30],57.3 nM
same,Ki,[7]; [32],53.1 nM
same,Ki,[8]; [35],304 nM
"FC1CC2NC1CC2c1ccc(Cl)nc1 (stereo not drawn) [Ligand 10, 2-exo-(2-Chloro-5-pyridyl)-5-exo-fluoro-7-azabicyclo[2.2.1]heptane]",Ki,[3]; [23],0.864 nM
same,Ki,[4]; [24],5.59 nM
same,Ki,[5]; [26],0.646 nM
same,Ki,[6]; [28],10.4 nM
same,Ki,[1]; [30],1.73 nM
same,Ki,[7]; [32],1.23 nM
same,Ki,[8]; [35],2.11 nM
